Measured values as given in patent US20150231199A1, “PEPTIDES AND THEIR USES” (priority 2012, published 2015).
Converted amounts (≈) assume the structure as drawn. Read-outs that look alike come from different tables or passages of the source. Positions of bridges follow the written chain, without caps; N, C: chain ends. Residues, ends and D or L forms follow the SMILES beside them. Chains are numbered I, II in the order given. *: point of attachment. Myristoyl = CCCCCCCCCCCCCC(=O)*; Hexanoyl = CCCCCC(=O)*

Assays:
[1] = in vitro; format: cell-based; conditions: human
Protocol: Cells were plated at a density of 10,000 cells per well in a 96-well opaque white plate (SPL Life Sciences Inc. Korea). Test compounds of various concentrations and controls were added to appropriate wells such that the final volume is 100 μl in each well. After 4 hours of exposure to the test compounds, the plates were removed from 37° C. incubator and equilibrated to 22° C. for 30 minutes. One hundred microliters of CellTiter-Glo reagent (Promega Inc. USA) was added to each well and the ATP assay was performed according to manufacturer's instructions. Luminescence was assessed using a micro-plate reader (Tecan Infinite 200 Pro, Switzerland). The cells exposed to 1% Triton X-100 were used as a positive control. The percent cell viable of each compound was determined using the formula below (L=Luminescence detected):
% Viability=[(Lnegative controls)−(Lexperiments)]/[(Lnegative controls)−(Lpositive controls)]×100

[2] = system: Escherichia coli ATCC27922; format: cell-based
Protocol: (§1) V2-dimer and all lipopeptides (FIG. 1A) used in this study were purchased from Mimotopes. All peptides were prepared by dissolving in sterile water to make 1000 μg/mL stock solutions. Minimum Inhibitory Concentration (MIC) determination was carried out in Mueller Hinton Broth (MHB) using the broth macro-dilution method as described by the Clinical and Laboratory Standards Institute (CLSI). Then, cation-adjusted MHB (CA-MHB) was used to prepare serial two fold dilutions of the compounds in test tubes. The concentration of the inoculums suspension was also adjusted to approximately 5×10^5 Colony Forming Units (CFU)/mL using MHB. Bacteria were incubated with the compounds for 24 hours at 35° C. prior to reading. In this study, Gram-positive strains used were Staphylococcus aureus DM4001 and Methicillin-resistant Staphylococcus aureus (MRSA) DM9808. Gram-negative strains used were Klebsiella pneumoniae DM4299, Pseudomonas aeruginosa ATCC23155 and Escherichia coli ATCC27922.

[3] = system: Klebsiella pneumoniae DM4299; format: cell-based
Protocol: as §1

[4] = in vitro; format: cell-based; conditions: human; remark: listed apart in the source
Protocol: The cytotoxicity of individual compounds screened was determined by the lactate dehydrogenase (LDH) assay. In brief, human corneal fibroblast cells were plated at a density of 10,000 cells per well in a 96-well opaque white plate (SPL Life Sciences Inc). Test compounds of various concentrations and controls were added to appropriate wells such that the final volume is 100 μl in each well. After 4 hours of exposure to the test compounds, the plates were removed from 37° C. incubator and equilibrated to 22° C. for 30 minutes. One hundred microliters of Cyto-TOX One reagent (Promega Inc. USA) was added to each well and the LDH assay was performed according to manufacturer's instructions. Fluorescence was assessed at an excitation wavelength of 560 nm and an emission wavelength of 590 nm using a micro-plate reader (Tecan Infinite 200 Pro, Switzerland). The cells exposed to 1% Triton X-100 were used as a positive control and treated as maximum releasing of LDH. The percent specific cytotoxicity of each compound was determined using the formula below (I=intensity):
% Cytotoxicity=[(Iexperiments)−(Inegative controls)]/[Ipositive controls)−(Inegative controls)]×100

[5] = system: red blood cells (RBCs) of New Zealand white rabbits; assay: in vitro; format: cell-based, rabbit
Protocol: Fresh red blood cells (RBCs) of New Zealand white rabbits were used for this experiment. The RBCs obtained were centrifuged at 3000 rpm for 10 min. Supernatant was removed and washed twice with sterile PBS Buffer (20 mM, 100 mM NaCl, pH 7). The RBCs were further diluted to 8% stock solution in PBS. Peptides were dissolved in PBS with desired stock concentrations. When compounds were mixed with RBCs, desired concentration of 4% RBCs was obtained. For C14V2D and C16V2D, they were dissolved in Dimethylformamide ([…]; DMF) with desired stock concentrations. When compounds were mixed with RBCs, desired concentration of 4% RBCs and 0.5% DMF was obtained. DMF concentration of <1% was used as it had negligible hemolytic activity on RBCs. The mixtures were added to 1.5 mL centrifuge tubes and incubated at 37° C. for 1 h. After incubation, the blood was centrifuged at 3000 rpm for 3 min at 4° C. 100 μL of the supernatant was transferred into transparent 96-well plate. The absorbance was measured at 576 nm using a microplate reader (TECAN Infinite 200M Pro). 2% Triton X-100 was used as positive control. PBS was used as negative controls. The amount of hemoglobin released was calculated using the following equation: […]

[6] = system: Pseudomonas aeruginosa; format: cell-based
Protocol: as §1
(§2) Methods used are as described in Example 1 above.

[7] = system: Methicillin-resistant Staphylococcus aureus (MRSA); format: cell-based
Protocol: as §1, §2

[8] = system: Staphylococcus aureus; format: cell-based
Protocol: as §1, §2

[9] = system: Klebsiella pneumoniae; format: cell-based
Protocol: The minimum inhibitory concentration (MIC) was determined using the broth microdilution method. Bacterial cells (shown in Table 6) are grown in Mueller Hinton Broth (MHB) overnight. 100 μL of adjusted inoculum in MHB is added to 100 μL of each dilution of peptide or antibiotics dissolved in the broth, so as to yield a final cell density of 10^5 to 10^6 cfu/mL in each well. The plates were incubated at 35° C. for 24 h and the absorbance at 600 nm (OD600) was monitored every 30 minutes. A positive control well contained the broth and organisms (no peptides/antibiotics), and a negative control tube contains only the broth. The MIC of peptides for each clinical isolate or reference organism was recorded as the lowest concentration of peptide/antibiotic that inhibited visible growth of the test organism. To study the effect of Mg2+ on MIC of branched peptides, the concentration of MgCl2 was varied in MHB and the MIC was determined as before.

[10] = system: P. aeruginosa ATCC 9027; assay: Outer membrane (OM) permeability assay (NPN); format: cell-based, Pseudomonas aeruginosa; conditions: FIG. 14
Protocol: To probe the OM permeability of peptides, a membrane impermeable probe N-phenyl-1-naphthyl amine (NPN) was used in the present study. The overnight cultured P. aeruginosa ATCC 9027 cells were harvested by centrifugation at 3000 rpm, 4° C. The resulting pellet was washed twice and resuspended in 5 mM HEPES buffer (pH 7.2) to OD600 of 0.4. The cells were placed in a 10 mm stirred cuvette and NPN was added to a final concentration of 10 μM. Appropriate concentrations of B2088 was added and the increase in fluorescence intensity was monitored on a Quanta Master fluorescence spectrophotometer (Photon Technology International, New Jersey, USA). The excitation and emission wavelengths were set at 350 and 410 nm with slid widths at 2 and 5 nm, respectively. The % NPN uptake was calculated relative to increase in NPN fluorescence intensity after the addition of 50 μM polymyxin B.

[11] = system: P. aeruginosa; assay: Bacterial viability assay (ED50); format: cell-based, Pseudomonas aeruginosa; conditions: P. aeruginosa ATCC 9027 and ATCC 27853; FIG. 12
Protocol: Cell viability was conducted for two Gram-negative bacteria (Pa 9027 and Pa 27853). The cultures were grown overnight in TS agar and a few isolated colonies were inoculated to achieve a turbidity equivalent to 0.5 McFarland standard. The cell concentration was adjusted to […] with 10 mM phosphate buffer and separated into different tubes to get final concentration of 10^5 CFU/ml. The peptides were added to the individual tubes to obtain concentrations of ⅛ MIC, ¼ MIC, ½ MIC, 1 MIC, 2 MIC and 4 MIC. The tubes were incubated at 37° C. for 22 h. Serial dilution was performed and 100 uL of the suspension was aliquot into MHA plate. The plates were incubated for 24 h at 37° C. for colony counting. Positive control was performed at 0 h and 22 h.

[12] = system: P. aeruginosa; assay: Time-kill kinetics assay; format: cell-based, Pseudomonas aeruginosa; conditions: both Pseudomonas strains at 1× and 2×MIC; compared with B2088; FIG. 13
Protocol: The kinetics of bactericidal action was performed by the assay reported before. Briefly, few colonies of overnight grown P. aeruginosa strains were collected from tryptic soy agar plate and suspended US pharmacopeia phosphate buffer (pH 7.2). The suspension was adjusted to an initial inoculum of 10^6 CFU/mL and incubated with various concentrations of B2088 and B2088—99 at 35° C. 0.1 mL aliquots were withdrawn at various time intervals, diluted […] fold using the same buffer, plated on tryptic soy agar plates and incubated at 35° C. The colonies were counted after 24 h incubation and expressed as CFU/mL. Buffer without peptides served as a positive control and % bacterial viability is estimated using the following equation:
Bacterial viability=1−(CFU/mL)peptide/(CFU/mL)control*100

Compound | CC50 at 4 h [1] [µM] | MIC [2] [µM] | MIC [3] [µM] | CC50 at 4 h [4] [µM] | HC10 ([5]; red cells of rabbit, 1 h) [µg/mL] | MIC [6] [µM] | MIC [7] [µM] | MIC [8] [µM] | MIC [9] [µM] | PC50 (concentration for 50% increase in NPN fluorescence intensity) compared with B2088 [10] | ED50 compared with B2088 [11] | MIC ([9]; 24 h) [µM] | kill kinetics [12] | HC10 [5]
CC(C)[C@H](NC(=O)[C@H](CCCCN)NC(=O)[C@H](CCCNC(=N)N)NC(=O)CNC(=O)[C@@H](N)CCCNC(=N)N)C(=O)N[C@H](C(=O)N[C@@H](CCCNC(=N)N)C(=O)N[C@@H](CCCNC(=N)N)C(=O)NCCCC[C@H](NC(=O)[C@H](CCCNC(=N)N)NC(=O)[C@H](CCCNC(=N)N)NC(=O)[C@@H](NC(=O)[C@@H](NC(=O)[C@H](CCCCN)NC(=O)[C@H](CCCNC(=N)N)NC(=O)CNC(=O)[C@@H](N)CCCNC(=N)N)C(C)C)C(C)C)C(=O)N[C@@H](CCCCN)C(=O)O)C(C)C [Peptide V2D, (RGRKVVRR)2KK] (I: H-RGRKVVRRKK-OH / II: H-RGRKVVRR; amide I:9-II:C) | > 1000 | 2.73 (≈ 6.25 µg/mL) | 5.46 (≈ 12.5 µg/mL) | > 1000 | >2000 | 5.46 (≈ 12.5 µg/mL) | 2.73 (≈ 6.25 µg/mL) | 5.46 (≈ 12.5 µg/mL) | 2.7 (≈ 6.19 µg/mL) | – | – | – | – | –
CCCCCC(=O)N[C@@H](CCCNC(=N)N)C(=O)NCC(=O)N[C@@H](CCCNC(=N)N)C(=O)N[C@@H](CCCCN)C(=O)N[C@H](C(=O)N[C@H](C(=O)N[C@@H](CCCNC(=N)N)C(=O)N[C@@H](CCCNC(=N)N)C(=O)NCCCC[C@H](NC(=O)[C@H](CCCNC(=N)N)NC(=O)[C@H](CCCNC(=N)N)NC(=O)[C@@H](NC(=O)[C@@H](NC(=O)[C@H](CCCCN)NC(=O)[C@H](CCCNC(=N)N)NC(=O)CNC(=O)[C@H](CCCNC(=N)N)NC(=O)CCCCC)C(C)C)C(C)C)C(=O)N[C@@H](CCCCN)C(=O)O)C(C)C)C(C)C [Peptide C6-V2D, (C5H11—CO—NH—RGRKVVRR)2KK] (I: Hexanoyl-RGRKVVRRKK-OH / II: Hexanoyl-RGRKVVRR; amide I:9-II:C) | – | 2.51 (≈ 6.24 µg/mL) | 5.03 (≈ 12.5 µg/mL) | – | >2000 | 5.03 (≈ 12.5 µg/mL) | 1.26 (≈ 3.13 µg/mL) | 2.51 (≈ 6.24 µg/mL) | – | – | – | – | – | –
N=C(N)NCCC[C@H](NC(=O)CNC(=O)CNC(=O)[C@H](CCCCN)NC(=O)[C@H](CCCNC(=N)N)NC(=O)CNC(=O)[C@@H](N)CCCNC(=N)N)C(=O)N[C@@H](CCCNC(=N)N)C(=O)NCCCC[C@H](NC(=O)[C@H](CCCNC(=N)N)NC(=O)[C@H](CCCNC(=N)N)NC(=O)CNC(=O)CNC(=O)[C@H](CCCCN)NC(=O)[C@H](CCCNC(=N)N)NC(=O)CNC(=O)[C@@H](N)CCCNC(=N)N)C(=O)N[C@@H](CCCCN)C(=O)O [Peptide G2D, (RGRKGGRR)2KK] (I: H-RGRKGGRRKK-OH / II: H-RGRKGGRR; amide I:9-II:C; N-terminus and C-terminus assumed) | – | – | 2.94 (≈ 6.24 µg/mL) | – | – | 2.94 (≈ 6.24 µg/mL) | 5.89 (≈ 12.5 µg/mL) | 5.66 (≈ 12 µg/mL) | – | higher | two times lower | 2.9 (≈ 6.16 µg/mL) | faster kill kinetics | –
CCCCCCCCCCCCCC(=O)N[C@@H](CCCNC(=N)N)C(=O)NCC(=O)N[C@@H](CCCNC(=N)N)C(=O)N[C@@H](CCCCN)C(=O)N[C@H](C(=O)N[C@H](C(=O)N[C@@H](CCCNC(=N)N)C(=O)N[C@@H](CCCNC(=N)N)C(=O)NCCCC[C@H](NC(=O)[C@H](CCCNC(=N)N)NC(=O)[C@H](CCCNC(=N)N)NC(=O)[C@@H](NC(=O)[C@@H](NC(=O)[C@H](CCCCN)NC(=O)[C@H](CCCNC(=N)N)NC(=O)CNC(=O)[C@H](CCCNC(=N)N)NC(=O)CCCCCCCCCCCCC)C(C)C)C(C)C)C(=O)N[C@@H](CCCCN)C(=O)O)C(C)C)C(C)C [Peptide C14-V2D, (C13H23—CO—NH—RGRKVVRR)2KK] (I: Myristoyl-RGRKVVRRKK-OH / II: Myristoyl-RGRKVVRR; amide I:9-II:C; N-terminus and C-terminus assumed) | – | 1.15 (≈ 3.12 µg/mL) | 9.22 (≈ 25 µg/mL) | – | – | 2.30 (≈ 6.24 µg/mL) | 2.30 (≈ 6.24 µg/mL) | 2.30 (≈ 6.24 µg/mL) | – | – | – | – | – | ^b251.82 ± 5.2 ug/mL
